Common to all, as to assay: inhibition of tumour cell growth, NCI panel, 48 h
Experiment [1] deals with EKVX NSCLC.
Experiment [2] relates to RXF 393 renal.
In experiment [3] the test system is MDA-MB-435.
For experiment [4], the system named is K-562 leukemia.
The test system of experiment [5] is RPMI-8226 leukemia.
Experiment [6] has as its system A549 NSCLC.
In experiment [7] the test system is SK-MEL-5 melanoma.
Experiment [8] concerns HOP-92 NSCLC.
Experiment [9] deals with LOX IMVI melanoma.
Experiment [10] deals with M14 melanoma.

Where “and” joins values, the source holds several entries; their conditions need not be identical. Equal entries are not always repeated.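 Method: 48-hour compound exposure of cells in 96-well plates, five concentrations, linear interpolation of endpoints. At the GI50, growth is halved. At the TGI there is no net growth.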

With `Cn1c(I)c(C#C[Si](C)(C)C)c(=O)[nH]c1=O`, the GI50 in [1] was 10.9 µM; in experiment [2] it was 0.639 µM; in experiment [3] it was 3.1 µM; in experiment [4], 1.68 µM; in experiment [5], 1.64 µM; in [6], 21.5 µM. Further, the GI50 in experiment [7] was 17.1 µM; in experiment [8], 1.08 µM; in experiment [9] it was 2.09 µM. In addition, the TGI in experiment [1] amounted to 24.8 µM; in experiment [2], 1.74 µM; in experiment [3], 11.5 µM; in experiment [4], 4.08 µM; in [5] it was 4.28 µM; in experiment [6] it was 38.1 µM. Moreover, the values for the TGI in [7], in experiment [8] and in experiment [9] were 31 µM, 2.53 µM and 4 µM, respectively.
Regarding `CCS(=O)(=O)c1ccc(OC)c(Nc2ncc(-c3cccc(F)c3)o2)c1`, the GI50 was above 25 µM in [1]; above 25 µM in experiment [10]; above 20.8 µM in [2]; above 25 µM in experiment [3]; above 25 µM in experiment [4]; above 25 µM in experiment [5]. Also, the GI50 in [6], in experiment [7], in experiment [8] and in [9] was above 25 µM in each case. The TGI in experiment [1], in [10], in [2], in experiment [3], in experiment [4] and in [5] was above 25 µM each time. For the same compound, the TGI in experiment [6], in experiment [7], in experiment [8] and in experiment [9] was above 25 µM each time.
Take `CC1=C(C(=O)Nc2ccc(Cl)c(Cl)c2)C(c2cccc(Cl)c2)NC(=S)N1` (stereo unspecified): the GI50 in [1] was 12.2 µM; in [10], 9.75 µM; in [2], 9.63 µM; in experiment [3], 14 µM; in experiment [4], 19.7 µM; in experiment [5], 23 µM. In addition, the GI50 in experiment [6] is 11.2 µM; in experiment [7] it was 2 µM; in experiment [8], 14.2 µM; in experiment [9] it was 12.8 µM. Also, the TGI in [1] was 28.8 µM; in experiment [10] it was 20.2 µM; in [2] it was 23.6 µM; in [3] it was 45.1 µM; in experiment [4], above 50 µM; in experiment [5] it was above 50 µM. Also, the TGI in experiment [6] is 48.3 µM; in [7], 4.32 µM; in experiment [8] it was above 50 µM; in [9] it was above 50 µM.
In the case of `O=C(C(=CN1CCN(C(=O)c2ccco2)C1=S)C(=O)c1ccccc1)c1ccccc1`, the GI50 in [1] is 8.06 µM; in [10] it was 7 µM; in experiment [2], 5.84 µM; in experiment [3] it was 7.24 µM; in experiment [4], 3.24 µM; in experiment [5], 8.41 µM. The GI50 in experiment [6] is 11.3 µM; in experiment [7] it was 10.9 µM; in [8], 27 µM; in [9] it was 1.22 µM. For the same compound, the TGI was 21.4 µM in experiment [1]; 13.8 µM in experiment [10]; 14.8 µM in [2]; 18.7 µM in experiment [3]; above 50 µM in experiment [4]; above 50 µM in experiment [5]. Further, the TGI in [6] was 29.1 µM; in experiment [7] it was 19.5 µM; in experiment [8] it was above 50 µM; in [9], 4.1 µM.
Turning to `COc1ccc2c(c1)nnc1c3cccnc3[nH]c21`, the GI50 in experiment [1] was 2.82 µM and 6.62 µM; in experiment [10], 1.07 µM and 3.26 µM; in [2], 0.66 µM and 1.76 µM; in experiment [3], 1.44 µM and 1.52 µM; in [4] it was 0.221 µM and 1.06 µM; in experiment [5], 0.725 µM and 0.487 µM. The GI50 is 7.9 µM and 3.53 µM in experiment [6]; 5.85 µM and 4.04 µM in experiment [7]; 0.0817 µM and 0.131 µM in experiment [8]; 0.758 µM and 0.403 µM in experiment [9]. For the same compound, the TGI in experiment [1] was 50 µM and > 100 µM; in experiment [2], 2.15 µM and 12.6 µM; in experiment [3] it was 9.43 µM and 12.3 µM; in experiment [5], 2.98 µM and 5.53 µM; in experiment [6], 42.5 µM and 15.4 µM; in experiment [7] it was 12.6 µM and 18.9 µM. The TGI in [8] was 1.11 µM and 3.26 µM; in experiment [9], 4.22 µM and 2.61 µM.
As to `O=C1/C(=C/c2ccc(C(F)(F)F)cc2)COc2ccc(O)c(O)c21`, the GI50 is 1.61 µM in [1]; 1.78 µM in experiment [10]; 1.6 µM in experiment [2]; 1.26 µM in experiment [3]; 0.289 µM in experiment [4]; 0.238 µM in [5]. In addition, the GI50 in experiment [6] is 1.51 µM; in [7], 1.73 µM; in experiment [8], 1.97 µM; in experiment [9], 0.377 µM. The TGI in experiment [1] is 2.99 µM; in experiment [10], 4.04 µM; in experiment [2], 3.05 µM; in [3], 2.68 µM; in experiment [4] it was above 100 µM; in experiment [5] it was 0.607 µM. Also, the TGI came out at 3.15 µM in [6], 3.21 µM in experiment [7], 6.67 µM in [8] and 1.48 µM in experiment [9].
Take `COc1cnccc1Nc1nc(-c2nn(Cc3c(F)cc(OCCO)cc3F)c3ccccc23)ncc1OC`: the GI50 was 13.5 µM in experiment [1]; 1.79 µM in experiment [10]; 3.85 µM in experiment [2]; 1.73 µM in experiment [3]; 0.645 µM in experiment [4]; 2.19 µM in experiment [5]. The GI50 in experiment [6] is 2.93 µM; in experiment [7] it was 2.91 µM; in experiment [8], 0.634 µM; in experiment [9], 1.84 µM. The TGI in experiment [1] was 61.6 µM; in experiment [10], 10 µM; in experiment [2], 17.1 µM; in experiment [3], 6.18 µM; in experiment [4] it was above 100 µM; in experiment [5], 55.2 µM. In addition, the TGI in experiment [6] is 10.3 µM; in experiment [7], 13 µM; in [8] it was above 100 µM; in experiment [9] it was 19.3 µM.

The values above are taken from PubChem BioAssay (NCI).
